# pEC50: −log10 of the molar value. Values joined by “and” are separate entries in the source; they are usually repeats but may differ in a detail not shown here. Identical values can stand only once. Like-named read-outs stand apart in the source and are kept apart here.
# Key:
# TA1537 = test: In vitro bacterial mutagenicity assay (pre-incubation), strain TA1537; details: positive control, TA1537, S9 0, 10 μg/plate
# Protocol: (§1) Dispense 100 microliter aliquots of the appropriate bacterial cultures into sample tubes stored on ice. Dispense aliquots of the vehicle, positive controls or dose formulations into the appropriate sample tubes. 2 mL top Agar and HBT cap was added to the sample tube, inverted three times and poured into MG plate. The lid was replaced on the plate and left on a level surface to let the agar harden. The plates were incubated in an incubator for 48 to 72 h. The background lawn and count the number of revertants was checked for each plate.
# [1] = Cytotoxicity by neutral red dye uptake in replicon cultures in parallel plates; details: human, AVA5 HCV replicon cells (sub-genomic CON1, genotype 1b)
# Protocol: (§2) Primary anti-HCV assay-Antiviral activity against HCV was assessed in a 3-day assay (Okuse, et al., 2005; Antiviral. Res. 65:23; Korba, et al., 2008, Antiviral Res. 77:56) using the stably-expressing HCV replicon cell line, AVA5 [sub-genomic (CON1), genotype 1b](Blight, et al., 2000, Science 290:1972) maintained as sub-confluent cultures on 96-well plates. Antiviral activity was determined by blot hybridization analysis of intracellular HCV RNA (normalized to the level of cellular B-actin RNA in each culture sample). Cytotoxicity was assessed by neutral red dye uptake in cultures maintained in parallel plates.
# (§3) EC50, EC90, and CC50 values were calculated by linear regression analysis (MS EXCEL®, QUATTROPRO®) using data combined from all treated cultures Korba & Gerin, 1992, Antivir. Res. 19:55; Okuse, et al., 2005, Antivir. Res. 65:23). Standard deviations for EC50 and EC90 values were calculated from the standard errors generated by the regression analyses. […] The Selectivity index (S.I.) was calculated as CC50/EC50. Recombinant human interferon 2b (PBL laboratories, Inc.) was used as an assay control.
# (§4) For each combination of agents, three concentration ratios, centered on the use of the compounds at equipotent antiviral concentrations, were used. A dilution series (six three-fold-concentration steps, beginning at the approximate EC90) was then generated with the concentration ratio of the two agents remaining the same in each dilution step. Toxicity analysis was performed as described above for the monotherapies. Analysis of drug interactions in the combination studies was determined by the use of the […] program (Biosoft, Inc., Cambridge, United Kingdom). This program evaluates synergy, additivity, or antagonism by use of several methodologies, including that of Chou and Talalay with a statistical analysis employing the Monte Carlo technique to provide confidence limits, fraction-affected-confidence interval (FA-CI) plots, isobolograms, and median-effect plots. (Belenkii, M. S. Schinazi, R. A method for the analysis of combination therapies with statistical analysis. Antiviral Res. 25, 11, 2005).
# [2] = test system: HCV replicon cell line, AVA5 [sub-genomic (CON1), genotype 1b]; test: microbe, parasite or virus in culture; format: cell-based; details: genotype 1B; for EC50: read-out: Control 2 (μM) EC50; for EC90: read-out: Control 2 (μM) EC90
# Protocol: as §2, §3, §4
# [3] = test system: replicon cell line containing H/FL-Neo (genotype 1a (H77), full length construct); test: Secondary anti-HCV assay: genotype 1a replicon, format of the primary assay; format: cell-based; details: genotype 1a replicon
# From the text: Res. 19:55; Okuse, et al., 2005, Antivir. Res. 65:23).
# Secondary anti-HCV assay—This assay assesses activity against different HCV genotypes using the format described for the primary assay. Activity against the genotype 1b HCV is included for comparison. Currently available is a replicon cell line containing H/FL-Neo (genotype 1a (H77), full length construct) (Blight, et al., 2003, J. Virol. 77:3181).
# WP2 uvrA = test: In vitro bacterial mutagenicity assay (pre-incubation), strain WP2 uvrA; details: positive control, S9 +, 15 μg/plate
# Protocol: as §1
# TA1535 = test: In vitro bacterial mutagenicity assay (pre-incubation), strain TA1535; details: positive control; for Number of revertants x1, x2, x3: individual plates; for Fold response: vs vehicle control
# Protocol: as §1
# TA100 = test: In vitro bacterial mutagenicity assay (pre-incubation), strain TA100; details: positive control, TA100, S9 0, 0.5 μg/plate
# Protocol: as §1
# [4] = test system: HCV replicon cell line, AVA5; test: Cytotoxicity by neutral red dye uptake in replicon cultures in parallel plates; details: read-out: Control 2 (μM) CC50; genotype 1B
# Protocol: as §2, §3, §4
# TA98 = test: In vitro bacterial mutagenicity assay (pre-incubation), strain TA98; details: positive control, TA98, S9 0, 1 μg/plate
# Protocol: as §1
compound,measurement,setting,value
"Nc1c2ccccc2nc2ccccc12 [Compound 9AC, reference compound]",Number of revertants mean,TA1537,741
same,"Number of revertants x1, x2, x3",TA1537; individual plates,728 and 910 and 585
same,Fold response,TA1537; vs vehicle control,57
CCC[C@H](NC(=O)[C@@H]1[C@H]2CCC[C@H]2CN1C(=O)[C@@H](NC(=O)[C@@H](NC(=O)c1cnccn1)C1CCCCC1)C(C)(C)C)C(=O)C(=O)NC1CC1 [VX-950],CC50 at 3 day,[1],88 µM
same,EC50,"[2]; Hepatitis C virus, Ava5",0.249 µM
same,EC90,"[2]; Hepatitis C virus, Ava5",0.892 µM
COC1C(OP(=O)(OC[C@H]2O[C@@H](n3cnc4c(N)ncnc43)CC2O)SCOC(=O)C(C)(C)C)[C@@H](CO)O[C@H]1n1ccc(=O)[nH]c1=O (some centres unmarked) [Compound 1],pEC50,"[3]; 2-fold depression of intracellular HCV RNA, read-out: EC50 HCV Type 1A",5.54
same,EC90,"[3]; 10-fold depression of intracellular HCV RNA, read-out: EC90 HCV type 1A",8.5 µM
"Nc1ccc2cc3ccccc3cc2c1 [Compound 2AA, reference compound]",Number of revertants mean,WP2 uvrA,373
same,"Number of revertants x1, x2, x3",WP2 uvrA; individual plates,476 and 357 and 285
same,Fold response,WP2 uvrA; vs vehicle control,9.6
same,Number of revertants mean,"TA1535; TA1535, S9 +, 5 μg/plate",254
same,"Number of revertants x1, x2, x3","TA1535; TA1535, S9 +, 5 μg/plate",263 and 242 and 257
same,Fold response,"TA1535; TA1535, S9 +, 5 μg/plate",11
"[N-]=[N+]=[N-].[Na+] [NaAz, reference compound]",Number of revertants mean,TA100,560
same,"Number of revertants x1, x2, x3",TA100; individual plates,568 and 569 and 543
same,Fold response,TA100; vs vehicle control,5.0
same,Number of revertants mean,"TA1535; TA1535, S9 0, 0.5 μg/plate",321
same,"Number of revertants x1, x2, x3","TA1535; TA1535, S9 0, 0.5 μg/plate",340 and 312 (2×)
same,Fold response,"TA1535; TA1535, S9 0, 0.5 μg/plate",12
C[C@@]1(O)[C@H](O)[C@@H](CO)O[C@H]1n1ccc(N)nc1=O [2′CmeCyt],CC50,[4],> 300 µM
same,EC50,[2],1.4 µM
same,EC90,[2],5.3 µM
"O=[N+]([O-])c1ccc2c(c1)Cc1ccccc1-2 [Compound 2NF, reference compound]",Number of revertants mean,TA98,139
same,"Number of revertants x1, x2, x3",TA98; individual plates,151 and 114 and 153
same,Fold response,TA98; vs vehicle control,4.5

# — patent US8404651B2, “Compositions and methods for treating viral infections” (priority 2008, dated 2013)
